Assay results taken from patent US20160046618A1, “Cyclopropyl Fused Thiazin-2-Amine Compounds as Beta-Secretase Inhibitors and Methods of Use” (AMGEN INC., priority 2014, published 2016).

Assays:
human recombinant BACE1 = human recombinant BACE1 (Homo sapiens (Human), UniProt P56817); assay: In vitro enzymatic BACE1 FRET assay; assay type: biochemical; conditions: BACE1 FRET enzyme assay; read-out: IC50 IP (μM) BACE1 enzyme
Summary of the method: (§1)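 Tris addition raises the pH to neutral to stop the reaction before fluorescence is measured at 590 nm emission with 488 nm excitation.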

[1] = test system: Aβ40 in conditioned medium of cells stably expressing Amyloid Precursor Protein (APP); assay: In vitro BACE-1 cell-based assay (Aβ40 sandwich ELISA); conditions: BACE1 cell-based assay; read-out: IC50 IP (μM) BACE1 cell
Summary of the method: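 Read-out: time-resolved fluorescence (Streptavidin-Europium) of Aβ40 captured by pAb40 and detected with biotinylated 6E10 from supernatants of APP-stable cells. Cells were exposed to compound for 24 h, 10-point dose response, top dose 100 μM or 10 μM, 0.1% DMSO. IC50 fitted to percent of control.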

human recombinant BACE2 = human recombinant BACE2 (Homo sapiens (Human), UniProt Q9Y5Z0); assay: In vitro enzymatic BACE2 FRET assay; assay type: biochemical; conditions: BACE2 FRET enzyme assay; read-out: IC50 IP (μM) BACE2 enzyme
Summary of the method: as §1

Recombinant Cat D = Recombinant Cat D (Homo sapiens (Human), UniProt P07339); assay: In vitro enzymatic Cathepsin D (Cat D) FRET assay; assay type: biochemical; conditions: Cathepsin D FRET enzyme assay; read-out: IC50 IP (μM) CatD
Summary of the method: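 Recombinant Cat D expressed in CHO cells, assayed in 0.05 M citrate pH 3.5 with 5 mM CHAPS and 10% DMSO final. Reaction started with 20 nM FRET peptide substrate, incubated one hour, then stopped by Tris buffer to neutral pH; fluorescence read at ex 500/em 580 nm.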

Aβ 40 in rat CSF = assay: In vivo inhibition of beta-secretase: Aβ40 reduction in rat CSF; conditions: after 4 h
From the text: (§2) In Vivo Inhibition of Beta-Secretase
Several animal models, including mouse, rat, dog, and monkey, may be used to screen for inhibition of beta-secretase activity in vivo following administration of a test compound sample. Animals used in this invention can be wild type, transgenic, or gene knockout animals. For example, the Tg2576 mouse model, prepared and conducted as described in Hsiao et al., 1996, Science 274, 99-102, and other non-transgenic or gene knockout animals are useful to analyze in vivo inhibition of Amyloid beta peptide (Abeta) production in the presence of inhibitory test compounds. Generally, 2 to 18 month old Tg2576 mice, gene knockout mice or non-transgenic animals are administered test compounds formulated in vehicles, such as cyclodextran, phosphate buffers, hydroxypropyl methylcellulose or other suitable vehicles. One to twenty-four hours following the administration of compound, animals are sacrificed, and brains as well as cerebrospinal fluid (CSF) and plasma are removed for analysis of A-beta levels and drug or test compound concentrations (Dovey et al., 2001, Journal of Neurochemistry, 76,173-181) Beginning at time 0, animals are administered by oral gavage, or other means of delivery such as intravenous injection, an inhibitory test compound of up to 100 mg/kg in a standard, conventional formulation, such as 2% hydroxypropyl methylcellulose, 1% Tween80. A separate group of animals receive 2% hydroxypropyl methylcellulose, 1% Tween80 alone, containing no test compound, and serve as a vehicle-control group. At the end of the test period, animals are sacrificed and brain tissues, plasma or cerebrospinal fluid are collected. […] Homogenates are centrifuged at 355,000 g, 4° C. for 30 minutes. CSF or brain supernatants are then analyzed for the presence of A-beta peptide by specific sandwich ELISA assays based on ECL (Electrochemiluminescence) technology. For example, rat Abeta40 is measured using biotinylated-4G8 (Signet) as a capture antibody and Fab40 (an in-house antibody specific to the C-terminal of Abeta40) as a detection antibody. For example, 4 hours after administration of 30 mg/kg oral dose of the test compound in 2% hydroxypropyl methylcellulose, 1% Tween80 (pH2.2) to 200 g male Sprague Dawley rats, amyloid beta peptide levels are measured for reduction by X % and Y % in cerebrospinal fluid and brain, respectively, when compared to the levels measured in the vehicle-treated or control mice.
(§3) Actual vehicles used: Oral: 2% HPMC, 1% Tween80, pH 2.2
The compounds of the invention may be shown to reduce the formation and/or deposition of amyloid beta peptide in the cerebrospinal fluid (CSF) as well as in the brain of a mouse or rat at either 3 mpk, 10 mpk or 30 mpk (mpk=mg compound per kg weight of the animal) dosing concentrations after 4 h.

Aβ 40 in rat brain = assay: In vivo inhibition of beta-secretase: Aβ40 reduction in rat brain; conditions: after 4 h
From the text: as §2
Several animal models, including mouse, rat, dog, and monkey, may be used to screen for inhibition of beta-secretase activity in vivo following administration of a test compound sample. Animals used in this invention can be wild type, transgenic, or gene knockout animals. […] One to twenty-four hours following the administration of compound, animals are sacrificed, and brains as well as cerebrospinal fluid (CSF) and plasma are removed for analysis of A-beta levels and drug or test compound concentrations (Dovey et al., 2001, Journal of Neurochemistry, 76,173-181) Beginning at time 0, animals are administered by oral gavage, or other means of delivery such as intravenous injection, an inhibitory test compound of up to 100 mg/kg in a standard, conventional formulation, such as 2% hydroxypropyl methylcellulose, 1% Tween80. A separate group of animals receive 2% hydroxypropyl methylcellulose, 1% Tween80 alone, containing no test compound, and serve as a vehicle-control group. At the end of the test period, animals are sacrificed and brain tissues, plasma or cerebrospinal fluid are collected. […] Homogenates are centrifuged at 355,000 g, 4° C. for 30 minutes. CSF or brain supernatants are then analyzed for the presence of A-beta peptide by specific sandwich ELISA assays based on ECL (Electrochemiluminescence) technology. For example, rat Abeta40 is measured using biotinylated-4G8 (Signet) as a capture antibody and Fab40 (an in-house antibody specific to the C-terminal of Abeta40) as a detection antibody.
as §3

Chain of Recombinant Cat D (P07339 65-412): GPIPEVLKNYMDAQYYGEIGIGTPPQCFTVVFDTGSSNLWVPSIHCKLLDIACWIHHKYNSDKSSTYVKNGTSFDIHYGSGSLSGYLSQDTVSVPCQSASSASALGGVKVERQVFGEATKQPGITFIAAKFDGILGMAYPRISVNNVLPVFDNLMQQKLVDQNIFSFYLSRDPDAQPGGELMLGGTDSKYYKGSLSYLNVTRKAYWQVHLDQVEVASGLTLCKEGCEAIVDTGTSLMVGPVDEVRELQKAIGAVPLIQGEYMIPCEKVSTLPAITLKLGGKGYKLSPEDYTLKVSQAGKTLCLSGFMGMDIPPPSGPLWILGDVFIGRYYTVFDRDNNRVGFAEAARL
Chain of human recombinant BACE2 (Q9Y5Z0 63-518): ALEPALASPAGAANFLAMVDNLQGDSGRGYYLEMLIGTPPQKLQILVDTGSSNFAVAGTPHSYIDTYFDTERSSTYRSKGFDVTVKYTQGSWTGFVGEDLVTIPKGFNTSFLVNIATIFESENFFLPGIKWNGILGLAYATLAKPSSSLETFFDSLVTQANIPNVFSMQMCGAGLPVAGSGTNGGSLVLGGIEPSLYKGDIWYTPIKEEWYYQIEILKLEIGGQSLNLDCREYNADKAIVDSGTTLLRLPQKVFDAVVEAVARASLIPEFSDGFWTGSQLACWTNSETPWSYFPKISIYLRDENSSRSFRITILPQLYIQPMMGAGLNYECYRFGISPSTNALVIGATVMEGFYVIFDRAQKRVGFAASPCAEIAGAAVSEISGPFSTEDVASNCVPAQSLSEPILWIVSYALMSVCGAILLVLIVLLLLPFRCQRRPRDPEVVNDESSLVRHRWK
Chain of human recombinant BACE1 (P56817 46-501): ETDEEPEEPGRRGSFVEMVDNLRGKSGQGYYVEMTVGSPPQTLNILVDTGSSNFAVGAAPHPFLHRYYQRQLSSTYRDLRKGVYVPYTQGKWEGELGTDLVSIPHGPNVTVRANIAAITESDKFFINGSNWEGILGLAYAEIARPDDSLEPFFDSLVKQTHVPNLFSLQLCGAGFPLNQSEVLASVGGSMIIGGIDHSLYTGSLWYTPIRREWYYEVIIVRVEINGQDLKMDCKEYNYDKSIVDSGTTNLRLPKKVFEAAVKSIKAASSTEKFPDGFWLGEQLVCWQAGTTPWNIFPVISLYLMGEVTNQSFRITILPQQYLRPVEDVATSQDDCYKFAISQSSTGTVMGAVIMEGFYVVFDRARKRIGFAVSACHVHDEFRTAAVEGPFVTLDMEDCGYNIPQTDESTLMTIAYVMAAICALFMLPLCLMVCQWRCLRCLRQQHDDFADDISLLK

| Compound | IC50 (human recombinant BACE1) | IC50 [1] | IC50 (human recombinant BACE2) | IC50 (Recombinant Cat D) | % Aβ 40 reduction in rat CSF (3 mpk) (Aβ 40 in rat CSF) | % Aβ 40 reduction in rat brain (3 mpk) (Aβ 40 in rat brain) | % Aβ 40 reduction in rat CSF at 10 mpk (Aβ 40 in rat CSF) | % Aβ 40 reduction in rat brain at 10 mpk (Aβ 40 in rat brain) |
| --- | --- | --- | --- | --- | --- | --- | --- | --- |
| C#CCOc1cnc(C(=O)Nc2cc(F)c(F)c([C@@]3(C)N=C(N)S[C@H]4C[C@H]43)c2)cn1 [Example 23, N-(3-((1S,5S,6S)-3-amino-5-methyl-2-thia-4-azabicyclo[4.1.0]hept-3-en-5-yl)-4,5-difluorophenyl)-5-(2-propyn-1-yloxy)-2-pyrazinecarboxamide] | 0.00047 µM | 0.00062 µM | 0.0374 µM | 81.9 µM | 70 (3 mpk) % | 61 (3 mpk) % |  |  |
| COC[C@]12C[C@H]1[C@@](C)(c1cc(Nc3nccc4cc(C#N)cnc34)cc(F)c1F)N=C(N)S2 [Example 33, 8-((3-((1S,5S,6S)-3-amino-1-(methoxymethyl)-5-methyl-2-thia-4-azabicyclo[4.1.0]hept-3-en-5-yl)-4,5-difluorophenyl)amino)-1,7-naphthyridine-3-carbonitrile] | 0.00203 µM | 0.00383 µM | 0.00169 µM | > 400 µM |  |  | 65% | 53% |
| COC[C@]12C[C@H]1[C@@](C)(c1cc(Nc3ncnc4cc(Cl)cnc34)cc(F)c1F)N=C(N)S2 [Example 35, N-(3-((1S,5S,6S)-3-amino-1-(methoxymethyl)-5-methyl-2-thia-4-azabicyclo[4.1.0]hept-3-en-5-yl)-4,5-difluorophenyl)-7-chloropyrido[3,2-d]pyrimidin-4-amine] | 0.00386 µM | 0.00288 µM | 0.00363 µM | 213 µM |  |  | 63% | 50% |
| NC1=N[C@](CF)(c2cc(Nc3nccc4cc(Cl)cnc34)ccc2F)[C@@H]2C[C@]2(CO)S1 [Example 45, ((1S,5S,6S)-3-amino-5-(5-((3-chloro-1,7-naphthyridin-8-yl)amino)-2-fluorophenyl)-5-(fluoromethyl)-2-thia-4-azabicyclo[4.1.0]hept-3-en-1-yl)methanol] | 0.00299 µM | 0.00427 µM | < 0.00203 µM | > 400 µM |  |  | 17% | 0% |
| COC[C@]12C[C@H]1[C@@](C)(c1cc(Nc3ncnc4cc(C#N)cnc34)cc(F)c1F)N=C(N)S2 [Example 46, 4-((3-((1S,5S,6S)-3-amino-1-(methoxymethyl)-5-methyl-2-thia-4-azabicyclo[4.1.0]hept-3-en-5-yl)-4,5-difluorophenyl)amino)pyrido[3,2-d]pyrimidine-7-carbonitrile] | 0.00631 µM | 0.00352 µM | 0.0301 µM | 252 µM |  |  | 73% | 67% |
| NC1=N[C@](CF)(c2cc(Nc3ncnc4cc(Cl)cnc34)ccc2F)[C@@H]2C[C@]2(CO)S1 [Example 49, ((1S,5S,6S)-3-amino-5-(5-((7-chloropyrido[3,2-d]pyrimidin-4-yl)amino)-2-fluorophenyl)-5-(fluoromethyl)-2-thia-4-azabicyclo[4.1.0]hept-3-en-1-yl)methanol] | 0.00631 µM | 0.0084 µM | 0.00749 µM | 1760 µM |  |  | 24% | 14% |
| N#Cc1cnc2c(Nc3ccc(F)c([C@@]4(CF)N=C(N)S[C@H]5C[C@H]54)c3)ncnc2c1 [Example 51, 4-((3-((1S,5S,6S)-3-amino-5-(fluoromethyl)-2-thia-4-azabicyclo[4.1.0]hept-3-en-5-yl)-4-fluorophenyl)amino)pyrido[3,2-d]pyrimidine-7-carbonitrile] | 0.033 µM | 0.00344 µM | 0.0983 µM | 1350 µM | 23 (3 mpk) % | 17 (3 mpk) % |  |  |
| C#CCOc1cnc2c(Nc3ccc(F)c([C@@]4(CF)N=C(N)S[C@@]5(CO)C[C@H]54)c3)nccc2c1 [Example 52, ((1S,5S,6S)-3-amino-5-(fluoromethyl)-5-(2-fluoro-5-((3-(2-propyn-1-yloxy)-1,7-naphthyridin-8-yl)amino)phenyl)-2-thia-4-azabicyclo[4.1.0]hept-3-en-1-yl)methanol] | 0.0105 µM | 0.00455 µM | 0.23 µM | > 400 µM |  |  | 16% | 0% |
| C[C@]1(c2cc(Nc3nccc4cc(C#N)cnc34)cc(F)c2F)N=C(N)S[C@@]2(CO)C[C@H]21 [Example 54, 8-((3-((1S,5S,6S)-3-amino-1-(hydroxymethyl)-5-methyl-2-thia-4-azabicyclo[4.1.0]hept-3-en-5-yl)-4,5-difluorophenyl)amino)-1,7-naphthyridine-3-carbonitrile] | 0.00139 µM | 0.00196 µM | < 0.00203 µM | > 44.4 µM |  |  | 18% | 19% |
| C#CCOc1cnc2c(Nc3cc(F)c(F)c([C@@]4(C)N=C(N)S[C@@]5(CO)C[C@H]54)c3)nccc2n1 [Example 82, ((1S,5S,6S)-3-amino-5-(2,3-difluoro-5-((2-(2-propyn-1-yloxy)pyrido[3,4-b]pyrazin-5-yl)amino)phenyl)-5-methyl-2-thia-4-azabicyclo[4.1.0]hept-3-en-1-yl)methanol] | 0.00043 µM | 0.00354 µM | 0.0099 µM | > 133 µM |  |  | 48% | 23% |
| C#CCOc1cnc(C(=O)Nc2cc(F)c(F)c([C@@]3(CF)N=C(N)S[C@H]4C[C@H]43)c2)c(C)n1 [Example 84, N-(3-((1S,5S,6S)-3-amino-5-(fluoromethyl)-2-thia-4-azabicyclo[4.1.0]hept-3-en-5-yl)-4,5-difluorophenyl)-3-methyl-5-(2-propyn-1-yloxy)-2-pyrazinecarboxamide] | 0.00125 µM | 0.0216 µM | 0.0228 µM | 974 µM |  |  | 40% | 8% |
